Among the test systems are TK-10; LOX IMVI; OVCAR-8; COLO 205; UACC-257; RPMI-8226; MCF7; HOP-92; SK-MEL-5; PC-3; CAKI-1; HL-60; SNB-75; A498; HCT-15; K562; SK-OV-3; Hs-578T; MDA-MB-231; MOLT-4.
Holding throughout (assay): DTP human tumour cell line panel, 48 h

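96-well plates; 48 h exposure; 5 concentrations. Endpoints by linear interpolation between flanking doses. Not reached: highest tested concentration assigned. GI50: concentration for 50% inhibition of growth.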 Calls of active or inactive are those of the source. Cut-off read from the data, not from the text of the source: active = GI50 up to about 1.1 µM and inactive = higher.

By GI50 is commonly meant the concentration giving 50% growth inhibition. On to `Cn1c(=O)c2[nH]c(CCC(=O)O)nc2n(C)c1=O`, for which the GI50 in the assay with TK-10, in the assay on LOX IMVI, in the assay on OVCAR-8, with COLO 205, in the assay on UACC-257 and with RPMI-8226 was > 100 µM (inactive) each time. Moreover, the GI50 in the assay with MCF7, in the assay on HOP-92, with SK-MEL-5, in the assay on PC-3, in the assay with CAKI-1 and in the assay on HL-60 was > 100 µM (inactive) each time. Moreover, the GI50 in the assay on SNB-75 is > 100 µM (inactive); in the assay with A498 it was > 100 µM (inactive); in the assay with HCT-15, greater than 100 µM; in the assay on K562 it was > 100 µM (inactive); in the assay with SK-OV-3 it was > 100 µM (inactive); in the assay on Hs-578T it was > 100 µM (inactive). The GI50 in the assay on MDA-MB-231 was > 100 µM (inactive).

On to `COc1ccccc1NC(=O)C(=O)Cc1cnc2ccccc2n1`, for which the GI50 with LOX IMVI, in the assay on OVCAR-8, in the assay with COLO 205, in the assay on UACC-257, with MOLT-4 and with RPMI-8226 was > 100 µM (inactive) throughout. Also, the GI50 with MCF7, in the assay on HOP-92, in the assay with SK-MEL-5, in the assay on PC-3, with CAKI-1 and in the assay on HL-60 was > 100 µM (inactive) throughout. Also, the GI50 in the assay on SNB-75 is 41 µM (inactive); in the assay with A498, > 100 µM (inactive); with HCT-15, greater than 100 µM; with K562, > 100 µM (inactive); in the assay with SK-OV-3 it was > 100 µM (inactive); with Hs-578T, > 100 µM (inactive). Besides, the GI50 in the assay with MDA-MB-231 is > 100 µM (inactive).

In the case of `CC(C)C(NC(=O)C(Cc1ccccc1)NC(=O)[C@H]1CCC[C@H]1NC(=O)C(N)Cc1ccc(O)cc1)C(N)=O` (stereo not given in full), the GI50 with TK-10, in the assay with LOX IMVI, with OVCAR-8, with COLO 205, in the assay on UACC-257 and with MOLT-4 was > 100 µM (inactive) each time. The GI50 with RPMI-8226 is > 100 µM (inactive); with MCF7 it was > 100 µM (inactive); in the assay on HOP-92, > 100 µM (inactive); in the assay with SK-MEL-5, 17.8 µM (inactive); in the assay with PC-3, > 100 µM (inactive); with CAKI-1, > 100 µM (inactive). Also, the GI50 was > 100 µM (inactive) in the assay on HL-60; > 100 µM (inactive) in the assay with SNB-75; > 100 µM (inactive) in the assay with A498; greater than 100 µM in the assay with HCT-15; > 100 µM (inactive) in the assay on K562; > 100 µM (inactive) with SK-OV-3. Also, the GI50 in the assay with Hs-578T and in the assay with MDA-MB-231 was > 100 µM (inactive) throughout.

Regarding `C[C@H]1CCC/C=C/[C@@H]2C[C@H](OC(=O)CN(C)C)C[C@H]2[C@H](O)/C=C/C(=O)O1`, the GI50 was 0.1 µM (active) in the assay on TK-10; 0.0861 µM (active) in the assay on LOX IMVI; 0.097 µM (active) in the assay on OVCAR-8; 0.0476 µM (active) in the assay on COLO 205; 0.109 µM (active) in the assay with UACC-257; 0.187 µM (active) in the assay on MOLT-4. Moreover, the GI50 is 0.303 µM (active) with RPMI-8226; 0.187 µM (active) in the assay on MCF7; 1.03 µM (active) with HOP-92; 0.0395 µM (active) in the assay with SK-MEL-5; 0.141 µM (active) in the assay with PC-3; 0.161 µM (active) in the assay with CAKI-1. The GI50 is 0.22 µM (active) in the assay with HL-60; 0.155 µM (active) in the assay with SNB-75; 0.083 µM (active) in the assay on A498; 0.188 µM with HCT-15; 0.241 µM (active) in the assay on K562; 0.0586 µM (active) in the assay on SK-OV-3. Moreover, the GI50 with Hs-578T is 0.0458 µM (active); in the assay with MDA-MB-231, 0.0152 µM (active).

For `COc1ccc2nc(N/N=C/c3sccc3C)cc(C)c2c1`, the GI50 with TK-10 is 12 µM (inactive); in the assay on LOX IMVI, 15.6 µM (inactive); in the assay on OVCAR-8 it was 37.8 µM (inactive); with COLO 205 it was 13.6 µM (inactive); with UACC-257, 17 µM (inactive); with MOLT-4, 18.7 µM (inactive). The GI50 is 9.38 µM (inactive) in the assay on RPMI-8226; 22.5 µM (inactive) in the assay with MCF7; 6.07 µM (inactive) in the assay with HOP-92; 12.9 µM (inactive) in the assay on SK-MEL-5; 17.1 µM (inactive) in the assay with PC-3; > 100 µM (inactive) in the assay with CAKI-1. For the same compound, the GI50 in the assay on HL-60 is 18.3 µM (inactive); in the assay on SNB-75 it was 15 µM (inactive); in the assay with A498 it was 12.2 µM (inactive); in the assay on HCT-15, 14.1 µM; in the assay on K562 it was 38 µM (inactive); in the assay with SK-OV-3 it was 13.2 µM (inactive). The GI50 is 18.6 µM (inactive) in the assay with Hs-578T and 0.406 µM (active) in the assay on MDA-MB-231.

Turning to `O=C(NCCCl)N(O)C(=O)Nc1ccccc1`, the GI50 in the assay with TK-10, with LOX IMVI, in the assay with OVCAR-8, with COLO 205, with UACC-257 and with MOLT-4 was > 100 µM (inactive) throughout. In addition, the GI50 in the assay with RPMI-8226 was > 100 µM (inactive); in the assay with MCF7, > 100 µM (inactive); in the assay with HOP-92 it was > 100 µM (inactive); in the assay on SK-MEL-5, 98.2 µM (inactive); with PC-3 it was > 100 µM (inactive); with CAKI-1, > 100 µM (inactive). Further, the GI50 in the assay on HL-60 is > 100 µM (inactive); with SNB-75 it was > 100 µM (inactive); in the assay with A498 it was > 100 µM (inactive); in the assay on HCT-15 it was greater than 100 µM; with K562, > 100 µM (inactive); in the assay on SK-OV-3, > 100 µM (inactive). Also, the GI50 with Hs-578T is > 100 µM (inactive); in the assay on MDA-MB-231, 67.8 µM (inactive).

As to `C/C(=N/NC(=S)N(Cc1ccccn1)Cc1ccccn1)c1cnccn1`, the GI50 in the assay on TK-10 is 0.071 µM (active); in the assay with LOX IMVI, 0.133 µM (active); in the assay on OVCAR-8, 0.0303 µM (active); in the assay with COLO 205, 0.0861 µM (active); in the assay on UACC-257 it was 0.47 µM (active); with MOLT-4 it was 0.0948 µM (active). For the same compound, the GI50 in the assay on RPMI-8226 is 0.373 µM (active); with MCF7, 0.565 µM (active); in the assay with HOP-92, 1.23 µM (inactive); in the assay on SK-MEL-5, 0.432 µM (active); in the assay on PC-3, 2.49 µM (inactive); in the assay on CAKI-1, 0.429 µM (active). The GI50 was 0.126 µM (active) in the assay with HL-60; 3.43 µM (inactive) in the assay on SNB-75; 9.84 µM (inactive) in the assay with A498; 0.458 µM in the assay with HCT-15; 0.519 µM (active) in the assay on K562; 0.476 µM (active) with SK-OV-3. Moreover, the GI50 with Hs-578T was 6.46 µM (inactive); with MDA-MB-231 it was 0.646 µM (active).

As for `CC1(C)CC(=O)C2=C(C1)C(c1ccccc1Cl)C1C(=O)CC(C)(C)CC1(O)O2` (stereo not given), the GI50 in the assay with TK-10 is > 100 µM (inactive); in the assay with LOX IMVI, > 68.2 µM (inactive); with OVCAR-8, > 86.7 µM (inactive); with COLO 205 it was > 31.6 µM (inactive); in the assay on UACC-257, > 49.9 µM (inactive); in the assay on MOLT-4, 74.5 µM (inactive). The GI50 is > 84.1 µM (inactive) in the assay on RPMI-8226; 37.3 µM (inactive) with MCF7; > 100 µM (inactive) in the assay with HOP-92; 64.1 µM (inactive) with SK-MEL-5; > 100 µM (inactive) with PC-3; 98.2 µM (inactive) in the assay on CAKI-1. Also, the GI50 with HL-60 was 4.91 µM (inactive); in the assay on SNB-75, > 78.3 µM (inactive); in the assay with A498, > 100 µM (inactive); in the assay on HCT-15, 42.5 µM; in the assay with K562 it was 15.3 µM (inactive); in the assay with SK-OV-3 it was > 100 µM (inactive). In addition, the GI50 was > 72.3 µM (inactive) with Hs-578T and > 100 µM (inactive) in the assay on MDA-MB-231.

As to `Cc1cc(Br)cc(C)c1NC(=O)C(=O)Nn1c(S)nc2ccccc2c1=O`, the GI50 in the assay on TK-10, in the assay with LOX IMVI, in the assay on OVCAR-8, in the assay with UACC-257, with MOLT-4 and in the assay with RPMI-8226 was > 100 µM (inactive) in each case. Also, the GI50 in the assay on MCF7, with HOP-92, with SK-MEL-5, in the assay on PC-3, with CAKI-1 and in the assay with HL-60 was > 100 µM (inactive) throughout. Moreover, the GI50 in the assay on SNB-75 was > 100 µM (inactive); with A498, > 100 µM (inactive); in the assay on HCT-15, greater than 100 µM; in the assay on K562, > 100 µM (inactive); with SK-OV-3, > 100 µM (inactive); in the assay with Hs-578T it was > 100 µM (inactive). The GI50 with MDA-MB-231 was > 100 µM (inactive).

For `Cc1cc(-c2nc3ccc(F)cc3s2)ccc1NC(=O)[C@H](C)N`, the GI50 in the assay with LOX IMVI is 1.99 µM (inactive); in the assay with OVCAR-8 it was 11.6 µM (inactive); with COLO 205, 9.77 µM (inactive); in the assay on UACC-257, 5.04 µM (inactive); in the assay with MOLT-4 it was 2 µM (inactive); in the assay with RPMI-8226, 3.11 µM (inactive). The GI50 in the assay on MCF7 was < 0.0186 µM (active); in the assay on HOP-92, 10.7 µM (inactive); with SK-MEL-5 it was 12.9 µM (inactive); in the assay on PC-3, 11.9 µM (inactive); in the assay on CAKI-1, 8.18 µM (inactive); in the assay with HL-60, 2.07 µM (inactive). Further, the GI50 was 11.8 µM (inactive) in the assay on SNB-75; 9.02 µM (inactive) with A498; 3.79 µM with HCT-15; 13.6 µM (inactive) in the assay with SK-OV-3; 10.8 µM (inactive) in the assay on Hs-578T; 10.4 µM (inactive) in the assay on MDA-MB-231.

The values above are taken from ChEMBL document CHEMBL1201862, “PubChem BioAssay data set” (2004).
